Consider eight compounds from EP0360937B1, “Improved process for recovering microbially produced interferonbeta” (CETUS ONCOLOGY CORPORATION, priority 1988, dated 1990).

The target of series [1] is T1, IFN-beta (Homo sapiens, UniProt P01574, C38S).
T1 construct: made in house; host or cells: E. coli K12/MM294-1 carrying plasmid pSY2501 (ATCC 39,517)
Put plainly: Keeping IFN-beta soluble as guanidine HCl is removed by dialysis; supernatant and pellet analysed by SDS-PAGE and silver stain. Type of series: physicochemical. Further details: key to Successful (+)/ Unsuccessful (-): Successful (+); Unsuccessful (-). To be noted: for Successful (+)/ Unsuccessful (-): dialysis against sodium phosphate buffer pH 5.0; for keeping IFN-beta in solution: 15% PEG300, 25% glycerol, 50% sucrose, 20% isopropanol. The protocol:
At this point, a stabilizing additive was added to the oxidized IFN-beta material while guanidine HCl is still present, and the solution was dialyzed to remove the guanidine. The solubilized, oxidized material was divided into aliquots and a different stabilizing agent or a non-ionic detergent was added to each aliquot. A summary of the stabilizing agents and non-ionic detergents used in this example, as well as the concentration used, is provided in Table 1.
Each aliquot was dialyzed against 20-50 mM sodium phosphate buffer, pH 5.0 containing the appropriate stabilizer or detergent. […] Dialysis was run at pH 5.0 because rIFN-beta is more soluble at low pH than at neutral or higher pH. As the guanidine HCl was dialyzed from the sample, a precipitate formed. The aliquots were centrifuged at 5,000 x g for 15 min and both the supernatant and the pellet, resuspended in 1% SDS, were saved. The supernatant and resuspended pellet were analyzed by SDS-PAGE (PHAST system by Pharmacia) and silver stain to locate the rIFN-beta.

Series [2] concerns the target T1, IFN-beta. The series can be described thus: Absorbance at 280 nm in supernatant after dialysis against glycerol, with varied concentration and pH. It is filed as physicochemical. The following applies: for % A₂₈₀ in Supernatant: 25 mM NaPi.

T1 sequence (P01574 23-187 C38S limits assumed): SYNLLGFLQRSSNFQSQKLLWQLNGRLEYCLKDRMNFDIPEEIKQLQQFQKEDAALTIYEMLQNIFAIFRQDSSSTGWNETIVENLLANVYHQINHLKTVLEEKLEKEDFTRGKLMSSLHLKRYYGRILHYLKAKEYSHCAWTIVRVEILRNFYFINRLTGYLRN

For `OCC(O)COc1ccccc1` (centres unmarked) [3-phenoxy-1,2-propanediol], the “Successful (+)/ Unsuccessful (-)” value on IFN-beta [1] (reagent at 5%) is “-”.

For the compound `CCC(O)CO` (centres unmarked) [1,2-butanediol], the “Successful (+)/ Unsuccessful (-)” value at IFN-beta [1] (reagent at 20%) is on record as “-”.

Regarding `OCC(O)CO` [Glycerol], the “% A₂₈₀ in Supernatant” value at IFN-beta [2] (25%, pH 4) came out at 31%; at IFN-beta [2] (25%, pH 5), 13%; at IFN-beta [2] (50%, pH 4), 86%; on IFN-beta [2] (50%, pH 5), 50%. The “IFN-beta solubility on adjusting concentration and pH” value at IFN-beta [2] (concentration increased to 50% and pH lowered to 4) is recorded as “greater IFN-beta solubility”. For the same compound, on IFN-beta [1], the “keeping IFN-beta in solution” value was “keep IFN-beta in solution”.

For `CC(O)CO` (centres unmarked) [Propylene Glycol], on IFN-beta [1] (reagent at 20%), the “Successful (+)/ Unsuccessful (-)” value is recorded as “-”.

Take `CC(C)O` [Isopropanol]: at IFN-beta [1], the “keeping IFN-beta in solution” value is “keep IFN-beta in solution”. For the same compound, the “Successful (+)/ Unsuccessful (-)” value at IFN-beta [1] (reagent at 50%) is listed as “+”.

As for `OCCO` [Ethylene Glycol], the “Successful (+)/ Unsuccessful (-)” value at IFN-beta [1] (reagent at 20%) is given as “-”.

In the case of Tween® 80, the “keeping IFN-beta in solution, detergent combined with glycerol” value at IFN-beta [1] (0.01% detergent with 25% glycerol at pH 4, A280 and SDS-PAGE) is on record as “keep most of the IFN-beta in solution”.

With `OC[C@H]1O[C@@](CO)(O[C@H]2O[C@H](CO)[C@@H](O)[C@H](O)[C@H]2O)[C@@H](O)[C@@H]1O` [Sucrose], the “keeping IFN-beta in solution” value at IFN-beta [1] is listed as “keep IFN-beta in solution”.
